In brackets after ≈: the same amount, converted by molar mass.
Tests used:
C. neoformans (F10025) = settings: Cryptococcus neoformans, read-out: MIC99 C. neoformans
[1] = test system: A. fumigatus A1160 (MFIG001); settings: Aspergillus fumigatus, read-out: MIC99 A. fumigatus A1160
Method: The Minimum Inhibitory Concentration (MIC, at 99% inhibition) of the compounds was determined using the broth microdilution method as recommended by EUCAST (EUCAST Definitive Document E.DEF 9.3.2, Method for the determination of broth dilution minimum inhibitory concentrations of antifungal agents for conidia forming moulds and EUCAST Definitive Document E.DEF 7.3.2 Method for the determination of broth dilution minimum inhibitory concentrations of antifungal agents for yeasts).

[2] = test system: Staphylococcus aureus (ATCC 43300); test: Antibacterial MIC, broth microdilution (CLSI); format: cell-based; settings: for MIC80: Staphylococcus aureus, ATCC43300, read-out: MIC80 S. aureus; for S. aureus Selectivity Indices, Group: Alkyl Amidines and NH Pyrroles
[3] = test system: Candida glabrata (ACPF3309); settings: for MIC99: Nakaseomyces glabratus, read-out: MIC99 Candida glabrata
[4] = test system: Human rhinovirus (HRV-14); test: Viral ToxGlo assay, Hela Ohio cells; format: cell-based; settings: M-HeLa, 72 h
[5] = test system: Enterococcus faecalis (ATCC 51299); test: Antibacterial MIC, broth microdilution (CLSI); format: cell-based; settings: for MIC80: Enterococcus faecalis, ATCC51299, read-out: MIC80 E. faecalis; for E. faecalis Selectivity Indices, Group: Alkyl Amidines and NH Pyrroles
T. vaginalis = test: Trichomonas resorufin assay; format: cell-based; settings: for IC50: Trichomonas vaginalis, read-out: IC50 T. vaginalis
[6] = test system: human respiratory syncytial virus (RSV A2); test: Viral ToxGlo assay, Hep-2 cells; format: cell-based; settings: 72 h
Influenza (H1N1) = test: Accelerated Viral Neuraminidase Inhibition Assay (AVINA), A549 cells; format: cell-based; settings: Influenza A virus, 72 h
[7] = test system: Escherichia coli (ATCC 25922); test: Antibacterial MIC, broth microdilution (CLSI); format: cell-based; settings: Escherichia coli, ATCC25922; read-out: MIC80 E. coli
[8] = test system: PolyAU double stranded RNA; test: Fluorescence intercalator displacement (FID) assay, SYBR-safe probe; settings: 20 μM compound, 30° C., lower % = stronger binding
Outline: (§1)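 Probe displacement was measured at 30 °C in 1 mM phosphate pH 7.4 containing SybrSafe (12500-fold dilution), 3.76 ng/mL nucleic acid (salmon dsDNA or polyAU dsRNA) and 20 μM compound. Fluorescence loss is normalised between probe-only and probe-plus-nucleic-acid controls.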

[9] = test system: Genomic double stranded DNA (salmon); test: as above; settings: 20 μM compound, 30° C., lower % = stronger binding
Outline: as §1

[10] = test system: Rhizopus arrhizus (NEQAS12.35321); settings: read-out: MIC99 Rhizopus arrhizus
Candida auris (H.17.157) = settings: for MIC99: Candidozyma auris, read-out: MIC99 Candida auris
T. equiperdum = test: Resazurin-based (Alamar blue) drug sensitivity assay; settings: Trypanosoma equiperdum, read-out: IC50 T. equiperdum
Method: A detailed description of the procedure for evaluating activity against trypanosomes, using an Alamar Blue (resazurin) assay, is described below.
The bloodstream form (BSF) T. b. brucei s427 (see De Koning, H. P. et al., Mol. Biochem. Parasitol. 2000, 106, 181-185), T. evansi AntTat 3/3 (see Dean, S. et al., Proc. Natl. Acad. Sci. USA, 2013, 110, 14741-14746), and T. equiperdum (see Stewart, M. L. et al., Eukaryot. Cell, 2010, 9, 336-343) were cultured in HMI-9 medium (Life Technologies, Paisley, United Kingdom) supplemented with 10% heat inactivated Foetal Bovine Serum (FBS (PAA Laboratories Linz, Austria)), 14 μL/L β-mercaptoethanol (BDH, Dorset, UK), and 3.0 g/L NaHCO3 (Sigma-Aldrich) and adjusted to pH 7.4. These cell lines were maintained at 37° C. in a humidified, 5% CO2 environment.
A resazurin-based (Alamar blue) drug sensitivity assay was used to assess and compare the activity of standard trypanocides in the different cell lines investigated (see Gould, M. K. et al., Anal. Biochem., 2008, 382, 87-93). Briefly, 23 doubling dilutions of the test compound of the invention, starting at 100 μM, and a compound-free control were prepared in 100 μL medium in a 96-well white plate (Greiner Bio-one, Frickenhausen, Germany). The cells were adjusted to 2×10^4 cells/mL for T. b. brucei and T. equiperdum; 4×10^4 cells/mL for T. evansi; and 5×10^5 cells/mL for T. congolense in the appropriate medium. 100 μL of the adjusted cells was then added to the wells containing drug dilutions and incubated for 48 h under respective culture condition. Thereafter, 20 μL of 125 mg/mL resazurin sodium dye was added, and the plate was incubated for a further 24 h.

T. evansi AntTat 3/3 = test: as above; settings: read-out: IC50 T. evansi
[11] = test system: SARS-CoV-2 (hCoV-19/Australia/VIC01/2020); test: SARS-CoV-2 microplaque inhibition assay in Vero-E6 cells; format: cell-based
[12] = SI, IC50 (μM)/MIC80 (μM), HEK293 cytotoxicity
[13] = SI, IC50 (μM)/MIC80 (μM), HEK293 cytotoxicity, numeric value
[14] = SI, IC50 (μM)/IC50 (μM), HEK293 cytotoxicity, Alkyl Amidines and NH Pyrroles
[15] = SI, IC50 (μM)/IC50 (μM), HEK293 cytotoxicity, numeric value
[16] = SI, IC50 (μM)/MIC99 (μg/mL), HEK293 cytotoxicity, Alkyl Amidines and NH Pyrroles

SMILES | MIC99 (C. neoformans (F10025)) | MIC99 [1] | MIC80 [2] | MIC99 [3] | inhibition at 20 µM [4] | MIC80 [5] | IC50 (T. vaginalis) | inhibition at 20 µM [6] | inhibition at 20 µM (Influenza (H1N1)) | MIC80 [7] | % Normalised Fluorescence with polyAU RNA [8] | % Normalised Fluorescence with gDNA [9] | E. faecalis Selectivity Indices, Group [5, 12] | S. aureus Selectivity Indices, Group [2, 12] | MIC99 [10] | MIC99 (Candida auris (H.17.157)) | also measured
CC(C)=CCC/C(C)=C/CNC(=O)c1cc(NC(=O)c2cc(NC(=O)c3ccc(/C=C/c4cnc5ccccc5c4)cc3)cn2C)cn1C [IVa10, N—((E)-3,7-dimethylocta-2,6-dien-1-yl)-1-methyl-4-(1-methyl-4-(4-((E)-2-(quinolin-3-yl)vinyl)benzamido)-1H-pyrrole-2-carboxamido)-1H-pyrrole-2-carboxamide] | > 50 µg/mL | 25 to 50 µg/mL (≈ 38.2 to 76.4 µM) | 5 to 25 µM (≈ 3.27 to 16.4 µg/mL) | 5 to 25 µg/mL (≈ 7.64 to 38.2 µM) | > 50% | 25 to 100 µM (≈ 16.4 to 65.5 µg/mL) | 5000 to 50000 nM | > 50% | 10 to 25% | > 100 µM |  |  |  |  |  |  | 
[H]/N=C(\CCNC(=O)c1cc(NC(=O)c2cc(NC(=O)c3ccc(C=Cc4ccc(C#N)cc4)cc3)cn2C)cn1C)NCC [Ia16, (E)-4-(4-(4-cyanostyryl)benzamido)-N-(5-((3-(ethylamino)-3-iminopropyl)carbamoyl)-1-methyl-1H-pyrrol-3-yl)-1-methyl-1H-pyrrole-2-carboxamide] | 5 to 25 µg/mL (≈ 8.46 to 42.3 µM) | > 50 µg/mL | 25 to 100 µM (≈ 14.8 to 59.1 µg/mL) | 25 to 50 µg/mL (≈ 42.3 to 84.6 µM) |  | 5 to 25 µM (≈ 2.95 to 14.8 µg/mL) | 5000 to 50000 nM | 25 to 50% | 25 to 50% | > 100 µM | 27% | 31% | B (Group B: 3 < SI <= 5) |  |  |  | 
CC/N=C(\N)CCNC(=O)c1cc(NC(=O)c2cc(NC(=O)c3ccc(/C=C/c4cnc5ccccc5c4)cc3)cn2C)cn1C [Ia14, N—((Z)-3-amino-3-(ethylimino)propyl)-1-methyl-4-(1-methyl-4-(4-((E)-2-(quinolin-3-yl)vinyl)benzamido)-1H-pyrrole-2-carboxamido)-1H-pyrrole-2-carboxamide] | 5 to 25 µg/mL (≈ 8.11 to 40.5 µM) | > 50 µg/mL | < 5 µM | 5 to 25 µg/mL (≈ 8.11 to 40.5 µM) |  | < 5 µM | < 1000 nM | 10 to 25% | < 10% | > 100 µM | 6% | 2% | D (D: SI > 10) | D (D: SI > 10) | > 50 µg/mL | > 50 µg/mL | S. aureus Selectivity Index (SI) [2, 13]: 44; E. faecalis Selectivity Index (SI) [5, 13]: 11; T. vaginalis Selectivity Indices, Group (T. vaginalis; [14]): D (Group D: SI > 32); T. vaginalis Selectivity Index (SI) (T. vaginalis; [15]): 35
CN(C)c1ccc(/C=C/c2ccc(C(=O)Nc3c[nH]c(C(=O)Nc4c[nH]c(C(=O)NCCC(=N)N)c4)c3)cn2)cc1 [IIIa9, (E)-N-(5-((5-((3-amino-3-iminopropyl)carbamoyl)-1H-pyrrol-3-yl)carbamoyl)-1H-pyrrol-3-yl)-6-(4-(dimethylamino)styryl)nicotinamide] | < 5 µg/mL | 5 to 25 µg/mL (≈ 9.03 to 45.2 µM) | 5 to 25 µM (≈ 2.77 to 13.8 µg/mL) | < 5 µg/mL | 25 to 50% | 5 to 25 µM (≈ 2.77 to 13.8 µg/mL) |  |  | 10 to 25% | 25 to 100 µM (≈ 13.8 to 55.4 µg/mL) | 24% | 16% | C (Group C: 5 < SI <= 10) | C (Group C: 5 < SI <= 10) | 5 to 25 µg/mL (≈ 9.03 to 45.2 µM) | 5 to 25 µg/mL (≈ 9.03 to 45.2 µM) | IC50 (T. equiperdum): > 1000 nM; IC50 (T. evansi AntTat 3/3): 100 to 1000 nM; C. glabrata Selectivity Indices, Group [3, 16]: C (Group C 20 < SI <= 50); SARS-CoV-2 Selectivity Indices, Group [11, 14]: D (Group D: SI > 25); SARS-CoV-2 Selectivity Index (SI) [11, 15]: 33; IC50 ([11]; Severe acute respiratory syndrome coronavirus 2, Vero C1008, plaque inhibition, Vero-E6 cells, read-out: IC50 SARS-CoV-2): < 2000 nM; C. auris Selectivity Indices, Group (Candida auris (H.17.157); [16]): D (Group D SI > 3); C. auris Selectivity Index (SI) (Candida auris (H.17.157); SI, IC50 (μM)/MIC99 (μg/mL), HEK293 cytotoxicity, numeric value): 6

— patent US20250313546A1, “NUCLEIC ACID BINDERS” (UNIVERSITY OF STRATHCLYDE, priority 2022, published 2025)
